Laboratory results as given in ChEMBL document CHEMBL1201862, “PubChem BioAssay data set” (2004).
Values belong to the molecule of their own block, whether it stands above or below them. The source made the active and inactive calls.

Assays:
[1] = molecular target: FAD-linked sulfhydryl oxidase ALR (Homo sapiens, UniProt P55789); assay: ALR-catalysed DTT oxidation blockers – biochemical, H2O2 detection, luminescence, cherry-pick, dose response (AID 493248)
[2] = intracellular Trypanosoma cruzi inhibitors in host cells – cell-based, plate reader, cherry-pick samples, set 3, dose response (AID 651818); format: functional;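 note: compounds incubated with infected cells for about four days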
Cytochrome P450 3A4 = Cytochrome P450 3A4 (Homo sapiens, UniProt P08684); conditions: Potency;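 note: confirmatory qHTS run detecting inhibitors and substrates of CYP3A4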
Cytochrome P450 3A4, sequence (P08684 whole entry, the tested form may be a part): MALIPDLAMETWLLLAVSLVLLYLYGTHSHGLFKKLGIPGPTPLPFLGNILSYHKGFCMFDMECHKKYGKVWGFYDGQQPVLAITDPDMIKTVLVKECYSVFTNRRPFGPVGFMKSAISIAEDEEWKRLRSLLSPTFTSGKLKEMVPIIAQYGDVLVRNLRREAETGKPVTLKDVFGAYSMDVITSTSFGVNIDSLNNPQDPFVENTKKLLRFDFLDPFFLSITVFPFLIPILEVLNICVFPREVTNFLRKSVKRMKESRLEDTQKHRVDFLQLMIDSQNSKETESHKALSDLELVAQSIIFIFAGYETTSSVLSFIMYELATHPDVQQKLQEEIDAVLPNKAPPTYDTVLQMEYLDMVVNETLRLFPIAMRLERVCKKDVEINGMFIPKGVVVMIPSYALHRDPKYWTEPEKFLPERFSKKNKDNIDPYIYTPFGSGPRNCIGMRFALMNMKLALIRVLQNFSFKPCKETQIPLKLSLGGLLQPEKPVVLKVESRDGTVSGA

[3] = HIV-1 AD8 envelope cell-cell fusion blockers – cherry-pick, dose response (AID 652062); format: functional, cell-based;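 note: luciferase signal from cell-cell fusion driven by HIV-1 clade B AD8 Env; potency is for inhibitors of fusion seen as a drop in luminescence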
[4] = blockers of HIV-1 envelope-mediated cell-cell fusion – cherry-pick, dose response (AID 652057); format: functional, cell-based
[5] = toxicity toward HepG2 liver cells – cell-based, plate reader, cherry-pick, antagonist series, cytotoxicity control, dose response (AID 743416); format: functional
[6] = molecular target: T1, Ubiquitin-conjugating enzyme E2 N (Homo sapiens, UniProt P61088); format: functional;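 note: Dose-response confirmation in a TR-FRET assay detecting UBC13-driven polyubiquitin chain formation, inhibition measured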
T1 sequence (P61088 whole entry): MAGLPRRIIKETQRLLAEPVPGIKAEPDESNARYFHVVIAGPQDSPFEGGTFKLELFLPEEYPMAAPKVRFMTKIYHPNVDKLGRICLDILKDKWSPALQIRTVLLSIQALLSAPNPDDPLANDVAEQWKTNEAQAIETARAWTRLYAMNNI

[7] = P. falciparum Dd2 growth inhibitors, dose response, SYBR Green, cherry-picked samples (AID 1159567); format: functional, cell-based
[8] = molecular target: T2, Corticotropin-releasing factor receptor 2/Corticotropin-releasing factor-binding protein (Homo sapiens, UniProt P24387+Q13324); assay: activators of CRF receptor 2 with binding protein – uHTS hits, confirmation (AID 602473); format: functional; conditions: read-out: EC50_Mean
T2 sequence (Q13324 whole entry): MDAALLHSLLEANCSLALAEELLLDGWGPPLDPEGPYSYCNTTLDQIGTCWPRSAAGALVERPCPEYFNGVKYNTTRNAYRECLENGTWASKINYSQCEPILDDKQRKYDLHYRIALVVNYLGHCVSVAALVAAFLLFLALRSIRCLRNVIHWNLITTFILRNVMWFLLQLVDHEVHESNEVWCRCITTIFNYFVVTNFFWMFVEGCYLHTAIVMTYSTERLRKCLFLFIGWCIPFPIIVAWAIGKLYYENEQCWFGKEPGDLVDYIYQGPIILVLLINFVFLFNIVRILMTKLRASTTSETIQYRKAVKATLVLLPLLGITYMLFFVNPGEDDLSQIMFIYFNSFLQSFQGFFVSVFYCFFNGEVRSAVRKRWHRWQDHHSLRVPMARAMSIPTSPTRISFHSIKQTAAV
T2 sequence (P24387 whole entry): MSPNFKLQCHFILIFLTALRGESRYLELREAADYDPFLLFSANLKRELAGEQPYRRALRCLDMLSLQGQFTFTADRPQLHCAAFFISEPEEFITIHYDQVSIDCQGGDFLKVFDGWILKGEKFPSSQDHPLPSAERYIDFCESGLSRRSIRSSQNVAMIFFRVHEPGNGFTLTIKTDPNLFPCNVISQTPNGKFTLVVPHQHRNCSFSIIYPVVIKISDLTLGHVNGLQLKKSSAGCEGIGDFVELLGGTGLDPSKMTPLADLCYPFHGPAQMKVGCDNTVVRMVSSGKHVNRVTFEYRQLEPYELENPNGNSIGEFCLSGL

[9] = molecular target: T2, Corticotropin-releasing factor receptor 2/Corticotropin-releasing factor-binding protein; assay: Dose Response confirmation of uHTS hits for small molecule antagonists of the CRF-binding protein and CRF-R2 receptor complex.; format: functional; conditions: read-out: IC50_Mean
[10] = molecular target: Luciferin 4-monooxygenase (Photinus pyralis, UniProt P08659); assay: inhibition of purified Photinus pyralis luciferase – biochemical, luminescence, dose response (AID 1891)
Luciferin 4-monooxygenase, sequence (P08659 whole entry): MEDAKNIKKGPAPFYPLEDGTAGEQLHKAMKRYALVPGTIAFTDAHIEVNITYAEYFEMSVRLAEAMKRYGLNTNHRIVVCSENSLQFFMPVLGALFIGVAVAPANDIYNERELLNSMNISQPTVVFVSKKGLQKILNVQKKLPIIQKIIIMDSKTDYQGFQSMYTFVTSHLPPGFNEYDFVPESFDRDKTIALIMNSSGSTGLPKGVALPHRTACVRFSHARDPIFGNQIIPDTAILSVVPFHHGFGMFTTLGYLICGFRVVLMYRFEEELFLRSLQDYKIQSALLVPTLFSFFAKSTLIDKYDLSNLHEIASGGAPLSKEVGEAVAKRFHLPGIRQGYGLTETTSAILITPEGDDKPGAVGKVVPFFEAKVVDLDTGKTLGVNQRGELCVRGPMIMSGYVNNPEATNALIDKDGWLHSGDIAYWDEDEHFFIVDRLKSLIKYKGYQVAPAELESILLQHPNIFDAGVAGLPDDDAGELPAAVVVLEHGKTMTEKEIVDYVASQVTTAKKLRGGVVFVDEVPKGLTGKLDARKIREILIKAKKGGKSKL

[11] = Luminescence Cell-Based Dose Confirmation HTS to Identify Inhibitors of Platelet Dense Granule Release. [Related pubchem assays: 1663 (Primary HTS), 1678 (Summary of Project)]; format: functional
[12] = OVCAR8 cell viability loss – plate reader, dry powder samples, PAX8 project, dose response (AID 743197); format: functional, cell-based; conditions: OVCAR-8
[13] = OVCAR-3 cell viability loss – plate reader, dry powder samples, PAX8 inhibitor project, dose response (AID 743044); format: functional, cell-based
Paired box protein Pax-8 = Paired box protein Pax-8 (Homo sapiens, UniProt Q06710); assay: PAX8 transcriptional activity inhibition in RMG-I – RMG-I cells, luciferase, cherry-pick, dose response (AID 687027); format: functional, cell-based;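 note: luciferase reporter driven by Pax8 target thyroperoxidase promoter measured by SteadyGlo luminescence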
Paired box protein Pax-8, sequence (Q06710 whole entry): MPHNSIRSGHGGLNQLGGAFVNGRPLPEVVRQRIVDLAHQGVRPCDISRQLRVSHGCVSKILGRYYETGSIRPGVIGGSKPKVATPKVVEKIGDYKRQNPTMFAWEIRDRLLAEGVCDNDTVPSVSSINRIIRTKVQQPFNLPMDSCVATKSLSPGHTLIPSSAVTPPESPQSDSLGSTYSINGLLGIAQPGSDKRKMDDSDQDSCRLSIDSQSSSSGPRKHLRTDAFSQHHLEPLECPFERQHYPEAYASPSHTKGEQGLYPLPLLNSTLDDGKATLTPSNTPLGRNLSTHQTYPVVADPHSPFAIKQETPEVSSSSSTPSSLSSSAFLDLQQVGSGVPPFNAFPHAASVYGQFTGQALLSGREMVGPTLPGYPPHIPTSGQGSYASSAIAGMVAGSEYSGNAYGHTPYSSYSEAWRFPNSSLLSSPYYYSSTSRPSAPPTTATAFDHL

FAD-linked sulfhydryl oxidase ALR, sequence (P55789 whole entry): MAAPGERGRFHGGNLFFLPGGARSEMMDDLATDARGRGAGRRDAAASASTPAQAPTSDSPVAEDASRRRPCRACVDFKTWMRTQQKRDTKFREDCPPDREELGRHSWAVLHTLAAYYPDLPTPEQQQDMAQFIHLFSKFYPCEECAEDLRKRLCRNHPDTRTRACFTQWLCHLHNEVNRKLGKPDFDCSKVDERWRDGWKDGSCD

AC50 [1]: 1.88 µM (active)
SMILES: CN(C)c1ccc(CN(C(=O)c2ccccc2Br)C2CCS(=O)(=O)C2)cc1 (stereo not given)

SMILES: C[C@@H]1CCCCO[C@@H](CN(C)Cc2ccc(Cl)c(Cl)c2)[C@@H](C)CN([C@H](C)CO)C(=O)c2cc(NC(=O)CCC(F)(F)F)ccc2O1
AC50 [2]: 3.1 µM (active)

AC50 (Cytochrome P450 3A4): 12.6 µM (inconclusive)
SMILES: COC(=O)c1cccc(C23CC4(C2)[C@H](CN(Cc2ccc(C(F)(F)F)cc2)[C@@H]4c2ccccc2)C3c2ccc(C(F)(F)F)cc2)c1 (stereo not given in full)

SMILES: C[C@H]1CN([C@@H](C)CO)C(=O)Cc2cc(NC(=O)NC3CCCCC3)ccc2O[C@@H]1CN(C)Cc1ccc(Cl)c(Cl)c1
AC50 [2]: 7.18 µM (active)

AC50 (Cytochrome P450 3A4): 39.8 µM (inconclusive)
SMILES: Cc1cc(O)c(C=O)c2c1C(=O)Oc1c(C)c(O)c3c(c1O2)C(O)OC3=O (stereo not given) [NORSTICTIC ACID]

SMILES: CN1C(=O)C2(c3ccccc31)N(C)CC(c1ccccc1)C21SC(=S)N(Cc2ccco2)C1=O (stereo not given)
AC50 [3]: 36.5 µM (active)
AC50 [4]: 46.4 µM (active)

SMILES: C[C@@H]1CCCCO[C@H](CN(C)C(=O)Nc2ccc3c(c2)OCO3)[C@@H](C)CN([C@H](C)CO)C(=O)c2cc(NC(=O)Nc3ccc(C(F)(F)F)cc3)ccc2O1
AC50 [2]: 2.56 µM (active)

SMILES: COCC#Cc1ccc2c(c1)O[C@H](CN(C)S(=O)(=O)c1cccc(F)c1)[C@@H](C)CN([C@H](C)CO)S2(=O)=O
AC50 [5]: > 52 µM (inactive)

IC50 [6]: > 20 µM (inactive)
SMILES: CCC(C)[C@H]1CN=C(N)N1CCc1cc(C(F)(F)F)cc(C(F)(F)F)c1 (stereo not given in full)

SMILES: CCC(=O)N1CC2(C1)CN(C(=O)Nc1ccccc1F)[C@H](CO)c1[nH]c3cc(OC)ccc3c12
AC50 [7]: 15.9 µM (active)

EC50 [8]: > 53 µM (inactive)
IC50 [9]: > 47.1 µM (inactive)
SMILES: COc1ccc(OC2C(=O)N(Cc3ccc(F)cc3)C2c2cc(OC)c(OC)c(OC)c2)cc1 (stereo not given)

SMILES: CCC(Oc1cc(Cl)ccc1Cl)C(=O)NNC(=O)CCC(=O)O (stereo not given)
EC50 [10]: > 112 µM (not active)
EC50 [11]: > 112 µM (not active)

SMILES: COC(=O)c1ccc(=O)n(-c2ccc(OC)cc2)c1
EC50 [10]: > 112 µM (not active)
EC50 [11]: > 112 µM (not active)

SMILES: C[C@H](CO)N1C[C@H](C)[C@H](CN(C)Cc2ccc(C(F)(F)F)cc2)Oc2ccc(NS(=O)(=O)c3ccc(Cl)cc3)cc2C1=O
AC50 [2]: 4.5 µM (active)

EC50 [8]: > 53 µM (inactive)
IC50 [9]: > 47.1 µM (inactive)
AC50 [1]: 1.64 µM (active)
SMILES: CN(C)c1ccc(/C(=N\O)c2ccccc2)cc1

SMILES: O=C(c1ccncc1)N1CCN(C(=O)c2cccc3ccccc23)CC1
EC50 [10]: > 112 µM (not active)
EC50 [11]: 16.6 µM (active)

AC50 [1]: 2.09 µM (active)
SMILES: CCC(C)Nc1nc2c(c(=O)n(C)c(=O)n2C)n1Cc1ccc(F)cc1 (stereo not given)

IC50 [6]: > 20 µM (inactive)
SMILES: Nc1ncc([N+](=O)[O-])cc1S(=O)(=O)c1ccccc1

SMILES: C[C@@H]1CCCCO[C@@H](CN(C)Cc2ccc(Cl)c(Cl)c2)[C@@H](C)CN([C@H](C)CO)C(=O)c2cc(NC(=O)Nc3ccc(C(F)(F)F)cc3)ccc2O1
AC50 [2]: 2.84 µM (active)

SMILES: COc1ccc(NC(=O)N(C)C[C@@H]2Oc3cc(-c4ccc(C)cc4)ccc3S(=O)(=O)N([C@H](C)CO)C[C@H]2C)cc1
AC50 [7]: 3.38 µM (active)

SMILES: C[C@@H]1CN([C@@H](C)CO)C(=O)c2cccc(NC(=O)Nc3ccc(C(F)(F)F)cc3)c2O[C@H]1CN(C)C(=O)Nc1ccc(C(F)(F)F)cc1
AC50 [2]: 6.06 µM (active)

SMILES: C[C@@H]1CN([C@@H](C)CO)C(=O)c2cccc(NS(=O)(=O)c3ccccc3)c2O[C@H]1CN(C)Cc1ccc(-c2ccccc2)cc1
AC50 [2]: 1.39 µM (active)

SMILES: C[C@@H]1CN([C@H](C)CO)C(=O)c2cc(NC(=O)Nc3cccc4ccccc34)ccc2O[C@@H]1CN(C)C(=O)Nc1cccc2ccccc12
AC50 [12]: 46.1 µM (active)
AC50 [13]: 49.7 µM (active)
AC50 (Paired box protein Pax-8): 6.15 µM (active)

AC50 [1]: 0.859 µM (active)
SMILES: CCCC(=O)Nc1ccc(-c2csc(NNC(C)=O)n2)cc1

EC50 [8]: > 53 µM (inactive)
IC50 [9]: > 47.1 µM (inactive)
SMILES: CC1(C)Cc2c(sc(/N=C/N3CCCC3)c2C#N)C(C)(C)N1
